According to patent US4542137A, “Alkylaminodesoxy-1.4;3.6-dianhydrohexitol nitrates substituted by purine bases and pharmaceutical compositions” (priority 1980, dated 1985):
Read-outs that look alike come from different tables or passages of the source.

Experiments:
mongrel cats [1] = assay: inotropic and frequency-lowering heart circulation effectiveness on mongrel cats, intraduodenal; assay type: in vivo; settings: cat, 5 mg/kg intraduodenal
Method: (§1) The animals were narcotised with a mixture of chloralose-urethane (1.2 g./kg. urethane+40 mg./kg. chloralose administered i.p.). They breathed spontaneously through a tracheal canula. The A. carotis sinistra was used in order to place a catheter tip manometer into the left heart chamber. The V. jugularis served for injection purposes. Via the A. femoralis, a catheter was pushed up into the Aorta descendans and attached to a pressure recorder (Statham P 23 Db). The heart frequency was recorded with a pulse frequency measurer (firm Hugo Sachs Elektronik) from the left ventricular pressure signal. A duodenal loop was exposed by a laparotomy. The substances to be tested were injected directly into the lumen.

[2] = acute toxicity in mice according to the method of Lichtfield and Wilcoxon; settings: mouse, in vivo
Method: As to example 1d, the following values for acute toxicity were determined with a greater number of mice, according to the method of Lichtfield and Wilcoxon: […]

[3] = system: isolated rat aorta preparations; assay: spasmolytic effectiveness on isolated rat aorta preparations (noradrenaline- and potassium chloride-induced contractions)
guinea pigs = assay: blood pressure-lowering effectiveness on narcotised guinea pigs, i.v.; settings: for blood pressure afterwards: after; for blood pressure previously: before; for blood pressure Δ: change
mongrel cats [4] = assay: inotropic and frequency-lowering heart circulation effectiveness on mongrel cats, intravenous; assay type: in vivo; parameters: heart frequency previously / dp/dt previously / dp/dt afterwards: unit not given beside the values; settings: cat; for blood pressure afterwards / dp/dt afterwards / heart frequency afterwards: after; for blood pressure previously / dp/dt previously / heart frequency previously: before; for blood pressure Δ / dp/dt Δ / heart frequency Δ: change
Method: as §1, with “A. femoralis dextra,” for “A. femoralis,”, “pushed in” for “pushed”, “up to” for “up into”, “measurer (Firm” for “measurer (firm”, “signal.” for “signal. A duodenal loop was exposed by a laparotomy. The substances to be tested were injected directly into the lumen.”

[5] = read-out: ED50 for spasmolytic action, Noradrenaline spasm (50% inhibition)
[6] = read-out: ED50 for spasmolytic action, potassium chloride spasm (50% inhibition)

Structure (SMILES): Cn1c(=O)c2c(ncn2CCCN[C@H]2CO[C@H]3[C@@H]2OC[C@@H]3O[N+](=O)[O-])n(C)c1=O [Example 1d, 5-(3-Theophyllin-7-ylpropyl)-amino-5-desoxy-1.4;3.6-dianhydro-L-iditol 2-nitrate]
- blood pressure (mongrel cats [1]; 0 min): 115.4 ± 14.4 mm. Hg
- dp/dt (mongrel cats [1]; 0 min): 6000 ± 1367 mm sec.
- frequency (mongrel cats [1]; 0 min): 173.2 ± 14.5 min⁻¹
- blood pressure (mongrel cats [1]; 10 min): 86.0 ± 13.8 mm. Hg
- dp/dt (mongrel cats [1]; 10 min): 4880 ± 1371 mm sec.
- frequency (mongrel cats [1]; 10 min): 173.6 ± 14.8 min⁻¹
- blood pressure Δ (mongrel cats [1]; 10 min vs 0): -29.4 mm. Hg
- dp/dt Δ (mongrel cats [1]; 10 min vs 0): -1120 mm sec.
- blood pressure (mongrel cats [1]; 30 min): 88.6 ± 14.8 mm. Hg
- dp/dt (mongrel cats [1]; 30 min): 4500 ± 1312 mm sec.
- frequency (mongrel cats [1]; 30 min): 166.0 ± 15.6 min⁻¹
- blood pressure Δ (mongrel cats [1]; 30 min vs 0): -26.8 mm. Hg
- dp/dt Δ (mongrel cats [1]; 30 min vs 0): -1440 mm sec.
- blood pressure (mongrel cats [1]; 60 min): 95.0 ± 14.4 mm. Hg
- dp/dt (mongrel cats [1]; 60 min): 5020 ± 1330 mm sec.
- frequency (mongrel cats [1]; 60 min): 168.4 ± 14.0 min⁻¹
- blood pressure Δ (mongrel cats [1]; 60 min vs 0): -20.4 mm. Hg
- dp/dt Δ (mongrel cats [1]; 60 min vs 0): -980 mm sec.
- blood pressure (mongrel cats [1]; 120 min): 99.4 ± 13.2 mm. Hg
- dp/dt (mongrel cats [1]; 120 min): 5100 ± 1341 mm sec.
- frequency (mongrel cats [1]; 120 min): 164.8 ± 13.2 min⁻¹
- blood pressure Δ (mongrel cats [1]; 120 min vs 0): -16.0 mm. Hg
- dp/dt Δ (mongrel cats [1]; 120 min vs 0): -900 mm sec.
- LD50 ([2]; ip, printed range (678.6-851.2), read-out: LD50 i.p.): 760 mg/kg
- LD50 ([2]; iv, printed range (190.4-251.9), read-out: LD50 i.v.): 219 mg/kg
- LD50 ([2]; po, read-out: LD50 p.o.): 1600 mg/kg
- IC50 [3, 5]: 560 nM
- IC50 [3, 6]: 2900 nM
- blood pressure afterwards (guinea pigs; 0.25 mg/kg i.v.): 49.75 ± 2.78 mm. Hg
- blood pressure previously (guinea pigs; 0.25 mg/kg i.v.): 67.75 ± 3.27 mm. Hg
- blood pressure Δ (guinea pigs; 0.25 mg/kg i.v.): -18.00 mm. Hg
- blood pressure afterwards (guinea pigs; 1.00 mg/kg i.v.): 40.00 ± 2.12 mm. Hg
- blood pressure previously (guinea pigs; 1.00 mg/kg i.v.): 68.00 ± 3.85 mm. Hg
- blood pressure Δ (guinea pigs; 1.00 mg/kg i.v.): -28.00 mm. Hg
- blood pressure afterwards (guinea pigs; 2.50 mg/kg i.v.): 37.50 ± 1.76 mm. Hg
- blood pressure previously (guinea pigs; 2.50 mg/kg i.v.): 66.25 ± 2.66 mm. Hg
- blood pressure Δ (guinea pigs; 2.50 mg/kg i.v.): -28.75 mm. Hg
- blood pressure-lowering effectiveness compared with ISMN or ISDN (guinea pigs; i.v., narcotised guinea pigs): more effective than ISMN or ISDN
- blood pressure WD (mongrel cats [4]; 0.25 mg/kg i.v.): 27.71 min
- dp/dt WD (mongrel cats [4]; 0.25 mg/kg i.v.): 15.57 min
- blood pressure afterwards (mongrel cats [4]; 0.25 mg/kg i.v.): 64.86
- dp/dt afterwards (mongrel cats [4]; 0.25 mg/kg i.v.): 6086
- heart frequency afterwards (mongrel cats [4]; 0.25 mg/kg i.v.): 184.57
- blood pressure previously (mongrel cats [4]; 0.25 mg/kg i.v.): 103.00
- dp/dt previously (mongrel cats [4]; 0.25 mg/kg i.v.): 7371
- heart frequency previously (mongrel cats [4]; 0.25 mg/kg i.v.): 180.86
- blood pressure Δ (mongrel cats [4]; 0.25 mg/kg i.v.): -38.14
- dp/dt Δ (mongrel cats [4]; 0.25 mg/kg i.v.): -1285
- heart frequency Δ (mongrel cats [4]; 0.25 mg/kg i.v.): +3.71
- blood pressure WD (mongrel cats [4]; 0.50 mg/kg i.v.): 20.21 min
- dp/dt WD (mongrel cats [4]; 0.50 mg/kg i.v.): 24.57 min
- blood pressure afterwards (mongrel cats [4]; 0.50 mg/kg i.v.): 61.57
- dp/dt afterwards (mongrel cats [4]; 0.50 mg/kg i.v.): 5300
- heart frequency afterwards (mongrel cats [4]; 0.50 mg/kg i.v.): 182.29
- blood pressure previously (mongrel cats [4]; 0.50 mg/kg i.v.): 101.86
- dp/dt previously (mongrel cats [4]; 0.50 mg/kg i.v.): 6614
- heart frequency previously (mongrel cats [4]; 0.50 mg/kg i.v.): 178.29
- blood pressure Δ (mongrel cats [4]; 0.50 mg/kg i.v.): -40.29
- dp/dt Δ (mongrel cats [4]; 0.50 mg/kg i.v.): -1314
- heart frequency Δ (mongrel cats [4]; 0.50 mg/kg i.v.): +4.00
- blood pressure WD (mongrel cats [4]; 1.00 mg/kg i.v.): 24.29 min
- dp/dt WD (mongrel cats [4]; 1.00 mg/kg i.v.): 19.58 min
- blood pressure afterwards (mongrel cats [4]; 1.00 mg/kg i.v.): 59.86
- dp/dt afterwards (mongrel cats [4]; 1.00 mg/kg i.v.): 5186
- heart frequency afterwards (mongrel cats [4]; 1.00 mg/kg i.v.): 182.00
- blood pressure previously (mongrel cats [4]; 1.00 mg/kg i.v.): 103.43
- dp/dt previously (mongrel cats [4]; 1.00 mg/kg i.v.): 5957
- heart frequency previously (mongrel cats [4]; 1.00 mg/kg i.v.): 174.00
- blood pressure Δ (mongrel cats [4]; 1.00 mg/kg i.v.): -43.57
- dp/dt Δ (mongrel cats [4]; 1.00 mg/kg i.v.): -771
- heart frequency Δ (mongrel cats [4]; 1.00 mg/kg i.v.): +8.00
- blood pressure WD (mongrel cats [4]; 2.50 mg/kg i.v.): > 10 min
- dp/dt WD (mongrel cats [4]; 2.50 mg/kg i.v.): 6.42 min
- blood pressure afterwards (mongrel cats [4]; 2.50 mg/kg i.v.): 63.88
- dp/dt afterwards (mongrel cats [4]; 2.50 mg/kg i.v.): 6550
- heart frequency afterwards (mongrel cats [4]; 2.50 mg/kg i.v.): 180.33
- blood pressure previously (mongrel cats [4]; 2.50 mg/kg i.v.): 107.50
- dp/dt previously (mongrel cats [4]; 2.50 mg/kg i.v.): 6383
- heart frequency previously (mongrel cats [4]; 2.50 mg/kg i.v.): 169.67
- blood pressure Δ (mongrel cats [4]; 2.50 mg/kg i.v.): -43.62
- dp/dt Δ (mongrel cats [4]; 2.50 mg/kg i.v.): +167
- heart frequency Δ (mongrel cats [4]; 2.50 mg/kg i.v.): +10.66

Structure (SMILES): CN(CCCn1cnc2c1c(=O)n(C)c(=O)n2C)[C@H]1CO[C@H]2[C@@H]1OC[C@@H]2O[N+](=O)[O-] [Example 9c, 5-[N-Methyl-N-(3-theophyllin-7-ylpropyl)-amino]-5-desoxy-1.4;3.6-dianhydro-L-iditol 2-nitrate]
- IC50 [3, 5]: 2950 nM
- IC50 [3, 6]: 45900 nM
